Data set [1] in a line: Metabolic stability and arterial blood clearance in a normal Wistar rat. In kind it is in vivo. The note with it: for c02: i.v. 5.27 nmol; for half-life / Vd / clearance / k el: male, iv, 5.27 nmol; for half-life / Vd / clearance: Wistar, rat; for clearance: plasma. The protocol: The following procedure was performed as recently published (Laube et al. [2020]). For assessing the in vivo stability, [^18F]7b (69.8 MBq corresponding to 5.27 nmol in 0.5 mL 0.9% NaCl with 5% ethanol (v/v)) was injected i.v. into a male Wistar rat (body weight 170 g) under desflurane anesthesia (10% desflurane in 30% oxygen/air, v/v). Using a catheter, blood samples from femoral artery were taken at 1, 3, 5, 10, 20, 30, 60, and 120 min p.i. The resulting loss of volume was compensated by i.v. injection of E153. Plasma was separated by centrifugation (3 min; 13,000 × g) followed by precipitation of plasma proteins with ice-cold Supersol (EtOH 20% (v/v), Triton X-100 0.5% (v/v), EDTA 5 mM, o-Phenanthroline 0.5 mM, Saponin 0.1% (w/v)). Clear supernatant separated by a second centrifugation step (3 min; 13,000 × g) was analyzed by radio-HPLC (Hewlett Packard Series 1100 equipped with a γ-detector (Raytest Ramona), Zorbax SB-C18, 300 Å, 4 μm, 250 × 9.4 mm (Agilent), eluent A, 0.1% (v/v) trifluoroacetic acid in H2O; eluent B, 0.1% (v/v) trifluoroacetic acid in CH3CN). Gradient elution was performed using 95% eluent A for 5 min, 95% eluent A to 95% eluent B in 10 min, 95% eluent B for 5 min, and 95% eluent B to 95% eluent A in 5 min, 3 mL/min, 50 °C. The clear supernatant was also analyzed by radio-TLC using reversed-phase TLC plates (ALUGRAM RP-18W/UV254 from Macherey–Nagel, Düren, Germany) with a mobile phase of 50% CH3CN in water containing 0.1% trifluoroacetic acid. For total protein precipitation at 5 and 60 min p.i., plasma samples were diluted with twice the volume of 15% trichloroacetic acid (TCA) in water instead of Supersol. Clear supernatant was separated by centrifugation (3 min; 13,000 × g) and analyzed as described above.
The measured activity concentrations (decay-corrected) in the blood samples of the Wistar rat were transformed into concentrations of 7b by taking the molar activity of [^18F]7b into account. These values were corrected by the fractions of intact [^18F]7b as analyzed by radio-HPLC or radio-TLC. These corrected concentrations were plotted against the time and analysis was performed by nonlinear regression according to two-phase decay as implemented in GraphPad Prism (Plateau was set to 0, Fig. 3B). However, for derivation of pharmacokinetic parameters, the corrected concentrations were converted to their log values and plotted against the time (semi-logarithmic plot, see inset in Fig. 3B). By linear regression of the data from 3 to 30 min, values for c02 (putative concentration of 7b at the beginning of the elimination phase) and kel (elimination rate constant) were derived. C02 was obtained as antilog of the intercept at the y-axis and kel represents the slope of the line. By knowing these two parameters as well as the applied dose (D = 5.27 nmol), the apparent volume of distribution (VD) and the plasma clearance (CL) was calculated using equations 7 and 8 (Freissmuth et al. [2016]).7 VD=D/c02 8 CL=kβ×VD

Data set [2] has as its system A375-hS100A4 tumor xenograft (TGase 2 +). The data set can be described thus: Ex vivo biodistribution in tumor-bearing mice (A375-hS100A4). Also on record: species or system mice (Rj:NMRI-Foxn1 nu/nu). As to the method:
(§1) For biodistribution studies in tumor-bearing mice, a number of 5 × 10^6 A375-hS100A4 or MeWo cells were resuspended in 100 µL PBS and injected subcutaneously into nude mice (Rj:NMRI-Foxn1 nu/nu). Tumor growth was monitored three times per week using caliper measurements. The injection of [^18F]7b and subsequent steps were performed as described above.

Data set [3] has as its system MeWo tumor xenograft (TGase 2 −). The data set can be described thus: Ex vivo biodistribution in tumor-bearing mice (MeWo). The arrangement: species or system mice (Rj:NMRI-Foxn1 nu/nu). As to the method: as §1
The nature of data set [4]: Liver microsome assay. In kind it is in vitro ADME, murine. As to conditions: MLM, without prior oxidation (data not shown). For orientation: Microsomes from liver hold many membrane-bound enzymes, among them those of drug oxidation.
On the set-up of data set [5]: method as in Wodtke et al. [2021]. As to conditions: ref Wodtke et al. [2021]; cited from earlier work.
Where [6] appears, read: whole blood (arterial), radio-HPLC.

Data on one compound can be found in PMC10761660, “Preclinical evaluation of an ^18F-labeled N^ε-acryloyllysine piperazide for covalent targeting of transglutaminase 2” (EJNMMI Radiopharmacy and Chemistry, 2024).

“And” between values parts separate entries of the source, which are not always exact repeats. Identical values can stand only once. “Also recorded” adds a separate entry of the source. Like-named read-outs stand apart in the source and are kept apart here.

As to `C=CC(=O)NCCCCC(NC(=O)Cc1ccccc1)C(=O)N1CCN(c2cccc([18F])n2)CC1` (centres unmarked) [[^18F]7b], the “fraction of unmodified [^18F]7b in both blood components” value in data set [1] (20 min p.i., plasma and erythrocytes) is on record as more than 40%. Further, the “residual intact [^18F]7b in intestinal content” value in data set [1] (120 min (2 h) p.i., radio-HPLC) was 7%. Besides, the “residual intact [^18F]7b in urine” value in data set [1] (120 min (2 h) p.i., radio-HPLC) is 8%. The “binding of ^18F-activity to plasma proteins” value in data set [1] (ex vivo plasma, protein precipitation) is given as “not protein-bound; also recorded: quite low”. Moreover, the figures for the c02 in data set [1] (intact fraction by radio-HPLC) and in data set [1] (intact fraction by radio-TLC) were 22.4 nM and 18.4 nM, respectively. The “terminal t1/2 (elimination half-life)” value in data set [1] (i.v., radio-HPLC) is on record as 17 min. Also, the half-life in data set [1] (arterial blood, i.v., radio-TLC, read-out: terminal t1/2) came out at 16 min; in data set [1] (whole blood (arterial), i.v., radio-HPLC, read-out: terminal t1/2 (elimination half-life)), 17.2 min. The Vd (as a rule, the apparent volume that relates the amount in the body to the concentration in plasma or blood) in data set [1] (arterial blood, radio-HPLC) was 0.235 L; in data set [1] (arterial blood, radio-TLC) it was 0.287 L and 1.69 L/kg; in data set [1] (setting [6]) it was 1.38 L/kg. The clearance was 56 mL/min/kg in data set [1] (i.v., radio-HPLC data, read-out: plasma clearance (plasma CL)); 9.5 mL/min and 56 mL/min/kg in data set [1] (i.v., radio-HPLC, read-out: Plasma CL); 12.6 mL/min and 74 mL/min/kg in data set [1] (i.v., radio-TLC, read-out: Plasma CL). Besides, the k el was 0.000733 s⁻¹ in data set [1] (arterial blood, radio-TLC) and 0.000667 s⁻¹ in data set [1] (setting [6]). Besides, in data set [1] (stable from 10 to 120 min p.i.), the “^18F-activity in blood bound to erythrocytes” value is given as “≈ 30%”. For the same compound, the “^18F-activity in blood located in the plasma fraction” value in data set [1] (stable from 10 to 120 min p.i.) was “≈ 60%”. The tumor/muscle ratio in data set [2] is 1.4; in data set [3], 1.0. Also, in data set [4], the susceptibility to glucuronidation entry is “not susceptible to glucuronidation”. Moreover, the logD7.4 in data set [5] is 2.1.
